Holding throughout (assay type): cell-based
In assay [1] the test system is J774 murine macrophage-like cells. The assay is described as follows: 3[H]-TdR incorporation in growth-arrested J774 cells. As for the experimental part: (§1) The growth stimulation of macrophage-like cells can be determined by measuring the thymidine uptake of the cells at varying concentrations of the mitogenic peptides of the present invention. This was determined for several macrophage-like cell lines including J774, P388D1, RAW and PU5. These are well-known murine cell lines available, for example, from the American Type Culture Collection, Rockville, Md.
^3 [H]-TdR incorporation. Various cell lines were plated in Dulbeccos's Modified Eagle Medium (DMEM) containing 10% fetal calf serum (FCS) in […] humidified atmosphere at 37° C. at an initial density of 5×10^5 per well in 24 well disposable plastic plates (Falcon, Oxnard, Calif.). Arrest of DNA synthesis (i.e., G0 /G1) was achieved by incubating the cells for 48 hours in serum-free DMEM containing 0.1% bovine serum albumin (BSA). The cells were then exposed to the peptide or to various […], or to FCS for 48 hours. Enhanced thymidine incorporation was assessed following a 2 hour pulse of N-methyl^3 [H]-TdR (1 μCi/ml). The cells were washed ×3 in PBS (phosphate buffered saline, pH 7.4) at 4, precipitated with 10% trichloroacetic acid (30 min at 4) and the insoluble material extracted ×2 with ETOH:ET2 O (3:1 v/v). The precipitate was solubilized in N NaOH and aliquots withdrawn for protein determinations using a dye-binding assay (Bio Rad Labs., Richmond, Calif.) and liquid scintillation spectrometry.
(§2) The various cell lines employed in these tests were the murine macrophage-like cell lines J774, P388D1, RAW and PU5. The various […] used in these tests were platelet-derived growth factor (PDGF), epidermal growth factor (EGF), fibroblast growth factor (FGF), and nerve growth factor (NGF). For background information on these known polypeptide growth factors see, for example, the recent review article by Kris et al., Biotechnology, February 1985, pp. 135-140; and the comprehensive review in Hormonal Proteins and Peptides, Ed. by Choh Hao Li, Vol. 12, "Growth Factors," Academic Press, 1984. EGF, NGF and FGF are commercially available from Biomedical Technologies, Cambridge, Massachusetts. In a representative test, 24 hours following exposure of the growth-arrested cells to optimal concentrations of the peptide (i.e., 10^-8 M), cell numbers inoreased approximately two-fold from a control value of […] cells/culture well. […] The results are set forth in FIG. 2 and in Table I, below. In FIG. 2, the baseline tritiated thymidine (^3 [H]-TdR) incorporation in quiescent J774 cells was 5000 cpm ± 420 s.e.m. (standard error of the mean) per well. The results are expressed as the mean of triplicate determinations.

Assay [2] concerns growth-arrested murine macrophage-like cells. The assay is described as follows: Cell number / proliferation of growth-arrested macrophage-like cells. Conditions: for proliferation of macrophage-like cells: concentration ranges of up to 500 ng/ml.
Excerpt: as §2

Assay [3] deals with RAW murine macrophage-like cell line. Briefly: 3[H]-TdR incorporation in growth-arrested RAW cells. How it is done:
as §1
(§3) ^3 [H]-TdR incorporation. Various cell lines were plated in Dulbeccos's Modified Eagle Medium (DMEM) containing 10% fetal calf serum (FCS) in […] humidified atmosphere at 37° C. at an initial density of 5×10^5 per well in 24 well disposable plastic plates (Falcon, Oxnard, Calif.). Arrest of DNA synthesis (i.e., G0 /G1) was achieved by incubating the cells for 48 hours in serum-free DMEM containing 0.1% bovine serum albumin (BSA). The cells were then exposed to the peptide or to various […], or to FCS for 48 hours. Enhanced thymidine incorporation was assessed following a 2 hour pulse of N-methyl^3 [H]-TdR (1 μCi/ml). […]
(§4) The various cell lines employed in these tests were the murine macrophage-like cell lines J774, P388D1, RAW and PU5. […] The results are expressed as the mean of triplicate determinations.

For assay [4], the system named is P388D1 murine macrophage-like cell line. Briefly: 3[H]-TdR incorporation in growth-arrested P388D1 cells. As for the experimental part:
as §1, §3, §4

Assay [5] concerns PU5 murine macrophage-like cell line. Briefly: 3[H]-TdR incorporation in growth-arrested PU5 cells. As for the experimental part:
as §1, §3, §4

[6] abbreviates: J774, test (1), >500 ng per well (highest concentration tested), 48 hours exposure, mean ± s.e.m.

For “EGF: epidermal growth factor, known polypeptide growth factor [reference compound]”, the “3[H]-TdR Incorporation/mg/Protein (% Increase)” value in assay [1] (setting [6]) was determined as 5.2± 0.2%. Besides, the “proliferation of macrophage-like cells” value in assay [2] was “failed to elicit proliferation”.
For “H-YPPWNKNFTENDLL-OH [Peptide I, H-Tyr-Pro-Pro-Trp-Asn-Lys-Asn-Phe-Thr-Glu-Asn-Asp-Leu-Leu-OH]”, the “Conc./Well: concentration yielding optimal specific 3[H]-TdR incorporation” value in assay [1] (J774) is 10^-8 M; in assay [3], 10^ -8 M; in assay [4] (P388D1), 10^ -7 M; in assay [5] (PU5) it was 10^ -6 M. Further, the “3[H]-TdR Incorporation/mg/Protein (% Increase)” value in assay [1] (J774, test (1), 10^-8 M per well, 48 hours exposure, mean ± s.e.m. of triplicate cultures) is 140± 8.5%; in assay [1] (J774, test (2), 10^-8 M per well, mean ± s.e.m.), 190± 12%; in assay [3] (test (2), 10^-8 M per well, mean ± s.e.m.), 276± 18%; in assay [4] (P388D1, test (2), 10^-7 M per well, mean ± s.e.m.) it was 226± 22%; in assay [5] (PU5, test (2), 10^-6 M per well, mean ± s.e.m.), 112± 4.4%. Moreover, the “increase in cell numbers over control” value in assay [2] (24 hours after exposure of growth-arrested cells to 10^-8 M) is reported as “approximately two-fold”.
Consider “NGF: nerve growth factor, known polypeptide growth factor [reference compound]”, for which the “3[H]-TdR Incorporation/mg/Protein (% Increase)” value in assay [1] (setting [6]) turned out to be 0± 0.5%. For the same substance, the “proliferation of macrophage-like cells” value in assay [2] was “failed to elicit proliferation”.
For PDGF [reference compound], in that order: 9.4± 0.3% and “failed to elicit proliferation”.

For the origin of these results see patent US4704380A, “Method of stimulating the growth of macrophage-like cells utilizing mitogenic peptides” (Washington University, priority 1987, dated 1987).
